Values after ≈ are worked out from the molar mass of the structure shown. Starred links: 1 amine or outer side, 2 acyl side, 3 side chain; linkers in the order of their positions; H or OH if unused. Non-standard residues stand in square brackets, D forms with d. Residues, ends and D or L forms follow the SMILES beside them. X1 = CC(Cc1ccccc1)C(N[*:1])C(=O)[*:2]; X2 = CC(C)C(N[*:1])C(C)C(=O)[*:2]; dNMeV = CN[C@@H](C(=O)O)C(C)C; dHiv = CC(C)[C@@H](O)C(=O)O; Lac = C[C@H](O)C(=O)O
What was measured:
Type in all cases: cell-based
[1] = system: a selection of human cancer cell lines, including lung cancer; assay: NCI minipanel, selection of human cancer cell lines; details: in words
Description: (§1) The administration of Dolastatin 18 is useful for treating neoplastic disease associated with malignant cell growth, and expectedly its synthetic counterpart, as well as, its pharmaceutically and physiologically active derivatives will be useful for treating neoplastic disease associated with malignant cell growth in animals and humans. For example, Dolastatin 18 was screened against a minipanel of the U.S. National Cancer Institute's human cancer cell lines utilizing protocols described by Michael R. Boyd and Kenneth D. Paul in Some Practical Considerations and Applications of the National Cancer Institute In Vitro Anticancer Drug Discovery Screen, 34 DRUG D[…] 91 (1995) (and references cited therein).

NCI-H460 = assay: NCI human cancer cell line minipanel, lung NCI-H460
Description: as §1, with “16” for “18”
as §1, with “17” for “18”, “91 (1995) (and references cited therein).” left out

SF-295 = assay: NCI human cancer cell line minipanel, brain SF-295
Description: as §1, with “16” for “18”
as §1, with “17” for “18”, “91 (1995) (and references cited therein).” left out

SK-MEL-5 = assay: NCI human cancer cell line minipanel, melanoma SK-MEL-5
Description: as §1, with “16” for “18”

[2] = system: five human leukemia cell lines; assay: NCI screen, five human leukemia cell lines; details: in words
Description: as §1, with “16” for “18”

[3] = system: complete panel of sixty human cancer cell lines; assay: NCI complete panel of sixty human cancer cell lines
Description: as §1, with “16” for “18”

KM 20L2 = assay: NCI human cancer cell line minipanel, colon KM 20L2
Description: as §1, with “16” for “18”
as §1, with “17” for “18”, “91 (1995) (and references cited therein).” left out

Row | SMILES | growth inhibition [1] | ED50 (NCI-H460; lung cancer NCI-H460) [ng/mL] | GI50 (SF-295) [ng/mL] | GI50 (SK-MEL-5) [ng/mL] | growth inhibition [2] | GI50 [3] [nM] | GI50 (KM 20L2) [ng/mL] | GI50 (NCI-H460; lung NCI-H460) [ng/mL]
1 | CCCC(=O)C(C)(C)C(=O)N[C@@H](CC(C)C)C(=O)N(C)[C@H](Cc1ccccc1)C(=O)N[C@@H](Cc1ccccc1)c1nccs1 [Dolastatin 18, Dhex--Leu--MePhe--Doe] | significantly inhibit growth | 390 (≈ 630 nM) | – | – | – | – | – | –
2 | CC(C)C1NC(=O)[C@@H]2CCCN2C(=O)C(C(C)Cc2ccccc2)NC(=O)[C@@H]2CCCN2C(=O)[C@@H](C(C)C)N(C)C(=O)[C@@H](C(C)C)OC(=O)[C@@H]2CCCN2C(=O)[C@H](C)OC(=O)C1C (some centres unmarked) [Dolastatin 16, cyclo-(Pro^1 --Dpv^2 --Pro^3 --Dml^4 --O--Lac^5 --Pro^6 --O--Hiv^7 --MeVal^8)] (cyclo([Lac]P[dHiv][dNMeV]P[X1]P[X2])) | – | – | 5.2 (≈ 5.92 nM) | 3.3 (≈ 3.75 nM) | comparable inhibitory results | 250 | 1.2 (≈ 1.37 nM) | 0.96 (≈ 1.09 nM)
